Results reported in patent US8674107B2, “Crystal of anti-bacterial compound” (priority 2010, dated 2014).
Where a name gives a salt, the structure may show the parent alone.

How the values were obtained:
Assay type in all cases: physicochemical
[1] = Evaluation of solubility in test solutions (HPLC); conditions: for Concentration: 37° C., total of 30 minutes
Description: The monohydrochloride dihydrate prepared in Example 1 and the free form (anhydrous form) were used in the following evaluation of solubility: an appropriate amount of each sample was added to 2 mL each of the test solutions (water, the JP 1st fluid for the disintegration test (JP1), and the JP 2nd fluid for the disintegration test (JP2)), fasted state simulated intestinal fluid (FaSSIF), and fed state simulated intestinal fluid (FeSSIF), and incubated in a thermobath of 37° C. Each solution was shaken in a vortex mixer for 30 seconds every 5 minutes (for a total of 30 minutes). Then, the supernatant was filtered through a membrane filter (pore size: 0.45 μm). After appropriate dilution with an eluent, the diluted solution was subjected to HPLC analysis to calculate concentration.
Measurement conditions for HPLC;
Column: Waters Symmetry C18 3.5 um, 4.6×100 mm
Column temperature: 40° C.
Mobile phase: 50 mM KH2PO4-K2HPO4 (pH 7.0)/MeCN=8:2

[2] = Evaluation of chemical stability (storage under dry-heat or wet-heat, HPLC); conditions: 2 weeks
Description: Approximately 2 mg each of various samples prepared in Example 1 was weighed into an aluminum pan for thermal analysis and stored under dry-heat (60° C., 0% RH) or wet-heat (40° C., 75% RH) conditions. One and two weeks later, each sample was collected, and the change in weight was determined. Then, the whole amount was dissolved in 20 mL of an eluent and subjected to HPLC analysis.

[3] = Evaluation of moisture absorption and desorption properties (microbalance); conditions: 25° C.; for moisture absorption and desorption patterns: 10-90% RH; for change in weight (moisture absorption and desorption properties): measurement range 10-90% RH
Description: Of the various samples prepared in Example 1, the monohydrochloride dihydrate, monohydrochloride monohydrate, and sulfate were separately placed in quartz holders and examined for their moisture absorption and desorption behaviors using a microbalance under the following measurement conditions:
Measurement conditions for moisture absorption and desorption behavior (sample volume: approximately 10 mg, measurement range: 10-90% RH, measurement temperature: 25° C., variable: within 0.03%, varying length of time: 10 minutes, apparatus: atmospheric pressure-type automatic water vapor sorption instrument manufactured by VTI Corp.)

[4] = listed as monohydrochloride dihydrate of compound A, monohydrochloride dihydrate

Cc1c(N2C[C@]3(N)CCC[C@]3(F)C2)c(F)cc2c(=O)c(C(=O)O)cn([C@@H]3C[C@@H]3F)c12 [Free form (anhydride), 7-[(1R,5S)-1-amino-5-fluoro-3-azabicyclo[3.3.0]octan-3-yl]-6-fluoro-1-[(1R,2S)-2-fluorocyclopropan-1-yl]-1,4-dihydro-8-methyl-4-oxoquinoline-3-carboxylic acid]
Concentration ([1]; Fasted state simulated intestinal fluid (FaSSIF)): 319 µg/mL
Concentration ([1]; JP 2nd fluid for dissolution test): 352 µg/mL
Concentration ([1]; Water): 280 µg/mL
Increase in related substances (%) ([2]; 40° C./75% RH): 0.01%
Increase in related substances (%) ([2]; 60° C./0% RH): 0.01%

Cc1c(N2C[C@]3(N)CCC[C@]3(F)C2)c(F)cc2c(=O)c(C(=O)O)cn([C@@H]3C[C@@H]3F)c12 [Monohydrochloride dihydrate, 7-[(1R,5S)-1-amino-5-fluoro-3-azabicyclo[3.3.0]octan-3-yl]-6-fluoro-1-[(1R,2S)-2-fluorocyclopropan-1-yl]-1,4-dihydro-8-methyl-4-oxoquinoline-3-carboxylic acid monohydrochloride dihydrate]
moisture absorption and desorption patterns [3, 4]: well consistent
moisture absorption and desorption patterns ([3]; monohydrochloride dihydrate): well consistent
change in weight (moisture absorption and desorption properties) [3, 4]: ≤ 2%
solubility at 30 min ([1]; 37 °C, thermodynamic from solid, in each of water, JP 1st fluid, JP 2nd fluid, FaSSIF and FeSSIF): ≥ 2000 µg/mL
Concentration ([1]; Fasted state simulated intestinal fluid (FaSSIF), monohydrochloride dihydrate): >2000 µg/mL
Concentration ([1]; Fed state simulated intestinal fluid (FeSSIF)): >2000 µg/mL
Concentration ([1]; JP 1st fluid for dissolution test): >2000 µg/mL
Concentration ([1]; JP 2nd fluid for dissolution test, monohydrochloride dihydrate): >2000 µg/mL
Concentration ([1]; Water, monohydrochloride dihydrate): >2000 µg/mL
Increase in related substances (%) ([2]; 60° C./0% RH, listed as monohydrochloride dihydrate of compound A, monohydrochloride dihydrate): 0.02%
Increase in related substances (%) ([2]; 60° C./0% RH, monohydrochloride dihydrate): 0.02%

Cc1c(N2C[C@]3(N)CCC[C@]3(F)C2)c(F)cc2c(=O)c(C(=O)O)cn([C@@H]3C[C@@H]3F)c12 [monohydrochloride monohydrate]
moisture absorption and desorption patterns ([3]; monohydrate): substantially the same
change in weight (moisture absorption and desorption properties) ([3]; monohydrate): ≤ 1%

Cc1c(N2C[C@]3(N)CCC[C@]3(F)C2)c(F)cc2c(=O)c(C(=O)O)cn([C@@H]3C[C@@H]3F)c12 [sulfate of compound A]
moisture absorption and desorption patterns [3]: well consistent
change in weight (moisture absorption and desorption properties) [3]: ≤ 2%
change in weight (moisture absorption and desorption behaviors) ([3]; relative humidity of 40% to 60%): ≤ 2%
